# Reference: patent USRE47761E1, “Anti-axl antibodies and methods of use” (Genentech, Inc., priority 2010, dated 2019)
# “Also recorded” adds a separate entry of the source.
# Legend:
# [1] = tested on: A549 xenograft; conditions: for reduction in tumor growth as a single agent: A549, FIG. 9A, erlotinib 100 mg/kg/day oral gavage
# Description: (§1) Mice were removed from the study when their tumor size reached 800 mm^3, and the animals remaining in each group (% remaining) were plotted. C. […] 12A11 and anti-VEGF was administrated IP at 30 mg/kg and 1 mg/kg, respectively, twice a week, starting when the mean tumor size reached 100 mm^3 (day 0). […] Cell lysates from tumors were analyzed by Western blot for Axl expression. […] Tumors from mice treated as above in D were excised at 0 and 72 hr post dosing and tumor vasculature was visualized by staining with MECA32 immunohistochemistry and quantified by image analysis (expressed as microns square).
# All studies were conducted in accordance with the “Guide for the Care and Use of Laboratory Animals” (NIH), and approved by the Institutional Animal Care and Used Committee (IACUC). A total of 5×10^6 (A549) or 10^7 cells in matrigel (MDA-MB-231) were implanted subcutaneously into right flank of nude (A549) or SCID mice (MDA-MB-231), respectively. When the average tumor sized reached 100 mm^3, mice were randomized and divided into different treatment groups (n=10 for each group). Anti-Axl or control IgG1 antibodies were at administrated at 10-30 mg/kg, anti-VEGF at 1-2 mg/kg, via intraperitoneal injection (IP), twice weekly. Erlotinib was administrated by oral gavage at 100 mg/kg/day. Paclitaxel and carboplatin were administrated subcutaneously at 6.25 mg/kg/day for 5 days, and 100 mg/kg for a single dose, respectively, at the beginning of the treatment. Statistic analyses were performed using Anova two-way for comparison of tumor growth in different treatment groups.
# [2] = tested on: tumor vasculature; assay: Intratumoral vascular density (MECA32) in A549 xenograft tumors; type: in vivo, mice
# Description: as §1
# Tumor samples were stained with MECA32, a pan endothelial cell marker. Images were acquired by the Ariol SL-50 automated slide scanning platform (Genetix Ltd.; Hampshire, UK) at 100× final magnification. Tumor-specific areas were exported for analysis in the Metamorph software package (MDS Analytical Technologies; Ontario, Canada) as individual 8-bit images. The brown DAB-specific staining was isolated from the Hematoxylin counterstain using a blue-normalization algorithm as described (Brey et al, 2003). […] Area measurements were recorded for individual vessels, as well as the tumor and non-tumor areas in each image. Raw values based on image analysis were analyzed using the JMP 8.0 software (SAS Institute, Inc. North Carolina, USA). […]
# [3] = tested on: MDA-MB-231 xenograft; assay: MDA-MB-231 xenograft tumor growth; type: in vivo, SCID mice
# [4] = tested on: tumor-associated macrophages; assay: Cytokine/chemokine secretion from tumor-associated macrophages of MDA-MB-231 xenografts; type: in vivo, mice; conditions: MDA-MB-231 tumors treated one week, 20 mg/kg, versus control antibody
# Description: (§2) Cell lysates from tumors were used in Western blot analysis for Axl expression. […] F. Axl is highly expressed in infiltrating macrophages of primary human breast cancer. Immunohistochemistry was used to examine 79 primary tumors. 21% of these tumors express high levels of Axl in the infiltrating macrophages. Macrophages were identified by staining with anti-CD68, and expression of Axl on macrophages was determined by anti-Axl/CD68 dual IHC. Serial sections were used. […] Tumor associated macrophages were isolated by sorting for F4/80 positive cells and cultured overnight. Cytokines and chemokines secreted into the medium were measured using the Bio-Plea mouse cytokine assay kit.
# Tumors were dissected, chopped into small pieces and incubated in RPMI1640 medium with 2.5% FBS, 0.2 units/ml Liberase Blendzymes II and 5 units/ml DNaseI, (Roche). Tumor cells were disassociated using MACS Dissociator (Miltenyi Biotec) and maintained for 20 minutes at room temperature. EDTA (final concentration 0.002%) was added to stop the reaction. Single cell suspensions were prepared, and red blood cells were removed using RBC lysis buffer (eBioscience). […] Cultured media was collected and the levels of cytokines and chemokines were determined using Bio-Plex mouse cytokine assays (Bio-Rad) according to manufacturer's instructions.
# [5] = tested on: cynomolgus Axl; assay: Cross reaction ELISA, cynomolgus Axl; type: binding
# Description: (§3) A-B. Affinity measurement of YW327.6S2 using BIAcore. Association rates (kon) and dissociation rates (koff) were calculated using the one-to-one Langmuir binding model. The equilibrium dissociation constant (Kd) was derived as the […]. C. […] Plates were coated with anti-human IgG Fc, and then incubated with human Axl, Mer, Tyro3 Fcs, mouse or cynomolgus AxlFcs. After washing, isotype control antibody or YW327.6S2 was added and followed by HRP conjugated anti-human IgG. […] FIG. 7D: ELISA. Plates were coated with anti-human IgG Fc and incubated with human Axl-Fc. After washing, Gas6 was added with or without antibodies. Binding of Gas6 was detected by biotylated anti-Gas6 antibody and streptavidin-HRP conjugate. FIG. 7E: FACS. […] Binding of Gas6 to the cell surface was detected by biotylated anti-Gas6 antibody and streptavidin-PE conjugate. […] Phosphorylated Axl was measured by ELISA (upper panel), and phosphorylated Akt by Western Blotting analysis (lower panel). […] Cell viability was measured by CellTiter Glo assay.
# ELISA assays were performed as follows: goat anti-human IgG Fc coated plates were blocking with 0.5% BSA, PBS, 0.05% Tween 20 (PBST). […] Secreted Ang-2 and DKK3 was measured using R&D ELISA kit, according to the manufacturer's instruction. Axl expression on cell surface was determined by FACS using standard techniques. […] Samples were analyzed on BD FACScalibur Flow Cytometer.
# [6] = tested on: MDA-MB-231 breast cancer cells; assay: MDA-MB-231 metastasis after tail vein injection (bioluminescence); type: in vivo, SCID mice
# Description: A. Bioluminescence imaging 4 weeks after tail vein injection of tumor cells. Mice were injected intraperitoneally (i.p.) with 200 μL of 25 mg/ml D-luciferin (Invitrogen) in PBS and were anesthetized during imaging using isoflurane via nose cone. Bioluminescence images were acquired on the Photon Imager (Biospace Lab, Paris, France) that has an intensified charge-coupled device camera. B. H & E staining of the tibia sections.
# For metastasis studies, 5×10^5 MDA-MB-231 cells stably transfected with a luciferase reporter gene (Li et al, 2009) were implanted into SCID mice via tail vein injection. Metastasis of tumor cells to various organs was monitor by bioluminescence detection as described (Li et al, 2009).
# [7] = tested on: tumor vasculature; assay: Intra-tumoral vascular density (MECA32) in MDA-MB-231 xenograft tumors; type: in vivo, SCID mice; conditions: MDA-MB-231 tumors
# Description: as §2
# Tumor samples were stained with MECA32, a pan endothelial cell marker. Images were acquired by the Ariol SL-50 automated slide scanning platform (Genetix Ltd.; Hampshire, UK) at 100× final magnification. Tumor-specific areas were exported for analysis in the Metamorph software package (MDS Analytical Technologies; Ontario, Canada) as individual 8-bit images. […] Area measurements were recorded for individual vessels, as well as the tumor and non-tumor areas in each image. Raw values based on image analysis were analyzed using the JMP 8.0 software (SAS Institute, Inc. North Carolina, USA). […]
# [8] = tested on: A549 xenograft tumors; assay: Cleaved caspase 3 and Ki67 IHC of A549 xenograft tumors; type: in vivo, mice; conditions: A549 tumors treated two weeks, versus control
# Description: B. Kaplan-Meier curve of various treatment groups. […] C. 12A11 enhances the effect of anti-VEGF.
# Xenograft tumor samples were fixed in 10% neutral buffered formalin, processed, embedded in paraffin, and sectioned at 4 μm. Thin sections were then treated with primary antibodies for Ki67, cleaved caspase 3 and MECA32, followed by biotinylated secondary antibodies and the DAB chromagen.
# [9] = tested on: Akt; assay: Gas6-induced Akt phosphorylation in H1299 cells (Western blotting); type: cell-based, human; conditions: pre-incubated 4 hrs, Gas6 30 minutes
# Description: as §3
# [10] = target: T1, human Axl ECD-His protein (human, UniProt P30530 26-451); assay: SPR (BIAcore-3000); anti-Axl human IgG captured by anti-human IgG, human Axl ECD-His injected
# T1 construct: also called Hu Axl; not shown: His tag
# T1 sequence (P30530 other isoform, or with tags, fused parts or gaps): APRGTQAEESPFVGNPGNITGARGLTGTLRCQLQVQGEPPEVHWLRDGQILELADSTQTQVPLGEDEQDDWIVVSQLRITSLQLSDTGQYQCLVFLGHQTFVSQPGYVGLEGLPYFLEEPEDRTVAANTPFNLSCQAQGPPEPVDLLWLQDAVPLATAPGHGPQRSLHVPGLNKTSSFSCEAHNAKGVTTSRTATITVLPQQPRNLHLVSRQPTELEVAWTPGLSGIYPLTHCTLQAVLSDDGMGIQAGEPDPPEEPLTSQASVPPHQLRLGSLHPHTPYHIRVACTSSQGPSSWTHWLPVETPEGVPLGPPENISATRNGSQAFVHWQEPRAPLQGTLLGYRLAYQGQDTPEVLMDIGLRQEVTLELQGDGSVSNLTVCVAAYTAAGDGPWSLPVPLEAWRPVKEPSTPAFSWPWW
molecule,measurement,setting,value
"C#Cc1cccc(Nc2ncnc3cc(OCCOC)c(OCCOC)cc23)c1 [erlotinib, reference compound]",reduction in tumor growth as a single agent,[1],30%
"YW327.6S2: Affinity matured phage-derived human anti-Axl monoclonal antibody, from clone YW327.6","intratumoral vascular density, antibody alone",[2],did not significantly reduced
same,"intratumoral vascular density, combination with anti-VEGF",[2],significant decrease; also recorded: enhances the effect of anti-VEGF in reducing intra-tumoral vascular density
same,"reduction of tumor growth, antibody alone",[3]; 20 mg/kg IP twice a week,25%
same,"reduction in tumor growth, combination therapy with anti-VEGF",[3]; 20 mg/kg with anti-VEGF 2 mg/kg,50%
same,inflammatory cytokines and chemokines produced by TAMs,[4],much lower levels; also recorded: inhibits
same,binding to cynomolgus Axl,[5],binds; also recorded: cross reacts
same,"sites detected by bioluminescence, total for the entire group","[6]; four weeks after injection, control group total 18",7
same,"metastasis of MDA-MB-231 cells (sites detected by bioluminescence), in words",[6]; versus control antibody,significantly reduced; also recorded: reduces
same,"intra-tumoral vascular density, single antibody versus control",[7],significantly reduced; also recorded: reduces
same,"tumor associated vascular density, combination with anti-VEGF",[7],further reduction
same,Ki67 positive nuclei,[8],no significant difference
same,"cleaved caspase 3 (CC3), apoptosis",[8],increased; also recorded: induces apoptosis
same,Gas6-induced phosphorylation of Akt,[9],blocks
same,reduction in tumor growth as a single agent,[1],30%
same,tumor growth inhibition by single agent,"[1]; A549, YW327.6S2 10 mg/kg or anti-VEGF 1 mg/kg IP twice a week",30%
same,duration of tumor stasis after treatment cessation,"[1]; A549, co-administration with anti-VEGF",at least 4 weeks
same,effect on the anti-tumor effect of anti-VEGF,"[1]; A549, combination with anti-VEGF 1 mg/kg",enhances
same,tumor re-growth from last dose to day 85,"[1]; A549, in combination with anti-VEGF",no tumor re-growth
same,"survival at end of experiment (Kaplan-Meier, tumor size 800 mm^3 cutoff)","[1]; A549, in combination with anti-VEGF, day 85",survival of all the animals
same,delay of tumor growth compared to a single agent,"[1]; A549, in combination with anti-VEGF, dosed 60 days, followed to day 85",significantly delayed tumor growth
same,reduction of tumor growth rate in combination with erlotinib,"[1]; mouse, in vivo",more than 50%
same,tumor growth inhibition by the combination treatment,"[1]; mouse, in vivo",60%
"YW327.6S2 (antibody, V domains shown) VH: EVQLVESGGGLVQPGGSLRLSCAASGFSLSGSWIHWVRQAPGKGLEWVGWINPYRGYAYYADSVKGRFTISADTSKNTAYLQMNSLRAEDTAVYYCAREYSGWGGSSVGYAMDYWGQGTLV VL: DIQMTQSPSSLSASVGDRVTITCRASQDVSTAVAWYQQKPGKAPKLLIYSASFLYSGVPSRFSGSGSGTDFTLTISSLQPEDFATYYCQQSYTTPPTFGQGTKVEIKR",Kd,[10],~1 nM
